Measured values from the NIST ThermoML archive (doi:10.1016/j.jct.2013.10.001).
Values joined by “and” are separate entries in the source; they are usually repeats but may differ in a detail not shown here. Equal entries are not always repeated.

Conditions: Liquid

CC(C)CCCC(C)CCCC(C)CCCCC(C)CCCC(C)CCCC(C)C (stereo not drawn) [2,6,10,15,19,23-hexamethyltetracosane]
Conditions | viscosity
333.15 K, 9160 kPa, quartz resonator viscometer | 9 mPa·s
333.15 K, 19900 kPa, quartz resonator viscometer | 10.9 mPa·s
333.15 K, 30240 kPa, quartz resonator viscometer | 13 mPa·s and 13.1 mPa·s
333.15 K, 40000 kPa, quartz resonator viscometer | 15.3 mPa·s
333.15 K, 49340 kPa, quartz resonator viscometer | 17.7 mPa·s
333.15 K, 60990 kPa, quartz resonator viscometer | 21.4 mPa·s
333.15 K, 70280 kPa, quartz resonator viscometer | 25 mPa·s
333.15 K, 80900 kPa, quartz resonator viscometer | 28.5 mPa·s and 28.6 mPa·s
338.15 K, 50600 kPa, Falling or rolling sphere viscometry | 15.56 mPa·s
338.15 K, 102800 kPa, Falling or rolling sphere viscometry | 32.94 mPa·s
338.15 K, 150200 kPa, Falling or rolling sphere viscometry | 60.9 mPa·s
338.15 K, 198400 kPa, Falling or rolling sphere viscometry | 108.9 mPa·s
338.15 K, 249700 kPa, Falling or rolling sphere viscometry | 194 mPa·s
338.15 K, 272700 kPa, Falling or rolling sphere viscometry | 243.8 mPa·s
338.15 K, 299800 kPa, Falling or rolling sphere viscometry | 327.6 mPa·s
338.15 K, 349200 kPa, Falling or rolling sphere viscometry | 538.5 mPa·s and 531 mPa·s
343.15 K, 10000 kPa, Falling or rolling sphere viscometry | 7.3 mPa·s
343.15 K, 15000 kPa, Falling or rolling sphere viscometry | 8 mPa·s
343.15 K, 25000 kPa, Falling or rolling sphere viscometry | 9.4 mPa·s
343.15 K, 50000 kPa, Falling or rolling sphere viscometry | 13.6 mPa·s
343.15 K, 75000 kPa, Falling or rolling sphere viscometry | 19.2 mPa·s and 18.7 mPa·s
343.15 K, 100000 kPa, Falling or rolling sphere viscometry | 26.5 mPa·s and 27.2 mPa·s
343.15 K, 125000 kPa, Falling or rolling sphere viscometry | 36.2 mPa·s and 38.1 mPa·s
343.15 K, 150000 kPa, Falling or rolling sphere viscometry | 49.1 mPa·s and 52 mPa·s
343.15 K, 175000 kPa, Falling or rolling sphere viscometry | 69.9 mPa·s
343.15 K, 200000 kPa, Falling or rolling sphere viscometry | 92.8 mPa·s
343.15 K, 225000 kPa, Falling or rolling sphere viscometry | 122.1 mPa·s
343.15 K, 250000 kPa, Falling or rolling sphere viscometry | 159.6 mPa·s
348.15 K, 20000 kPa, Falling or rolling sphere viscometry | 7.45 mPa·s
348.15 K, 40000 kPa, Falling or rolling sphere viscometry | 10.15 mPa·s
348.15 K, 60000 kPa, Falling or rolling sphere viscometry | 13.51 mPa·s
348.15 K, 80000 kPa, Falling or rolling sphere viscometry | 17.79 mPa·s
348.15 K, 100000 kPa, Falling or rolling sphere viscometry | 23.08 mPa·s
348.15 K, 120000 kPa, Falling or rolling sphere viscometry | 29.61 mPa·s
348.15 K, 140000 kPa, Falling or rolling sphere viscometry | 37.63 mPa·s
348.15 K, 160000 kPa, Falling or rolling sphere viscometry | 48.09 mPa·s
348.15 K, 180000 kPa, Falling or rolling sphere viscometry | 60.38 mPa·s
348.15 K, 198300 kPa, Falling or rolling sphere viscometry | 70.83 mPa·s
348.15 K, 200000 kPa, Falling or rolling sphere viscometry | 74.91 mPa·s
348.15 K, 200400 kPa, Falling or rolling sphere viscometry | 72.63 mPa·s
348.15 K, 300600 kPa, Falling or rolling sphere viscometry | 202.9 mPa·s
348.15 K, 349800 kPa, Falling or rolling sphere viscometry | 327.6 mPa·s
363.15 K, 10200 kPa, Falling or rolling sphere viscometry | 4.36 mPa·s
363.15 K, 21000 kPa, Falling or rolling sphere viscometry | 5.15 mPa·s
363.15 K, 30900 kPa, Falling or rolling sphere viscometry | 5.97 mPa·s
363.15 K, 40700 kPa, Falling or rolling sphere viscometry | 6.84 mPa·s
363.15 K, 50600 kPa, Falling or rolling sphere viscometry | 7.82 mPa·s
363.15 K, 60600 kPa, Falling or rolling sphere viscometry | 8.94 mPa·s
363.15 K, 70700 kPa, Falling or rolling sphere viscometry | 10.18 mPa·s
363.15 K, 80600 kPa, Falling or rolling sphere viscometry | 11.49 mPa·s
363.15 K, 91000 kPa, Falling or rolling sphere viscometry | 13.06 mPa·s
363.15 K, 100000 kPa, Falling or rolling sphere viscometry | 14.59 mPa·s and 14.2 mPa·s
363.15 K, 120400 kPa, Falling or rolling sphere viscometry | 18.36 mPa·s
363.15 K, 125000 kPa, Falling or rolling sphere viscometry | 19.9 mPa·s
363.15 K, 150000 kPa, Falling or rolling sphere viscometry | 26.8 mPa·s
363.15 K, 150300 kPa, Falling or rolling sphere viscometry | 25.56 mPa·s
363.15 K, 175000 kPa, Falling or rolling sphere viscometry | 35.1 mPa·s
363.15 K, 200000 kPa, Falling or rolling sphere viscometry | 45 mPa·s
363.15 K, 200200 kPa, Falling or rolling sphere viscometry | 42.82 mPa·s
363.15 K, 225000 kPa, Falling or rolling sphere viscometry | 56.7 mPa·s
363.15 K, 225600 kPa, Falling or rolling sphere viscometry | 55.03 mPa·s
363.15 K, 246900 kPa, Falling or rolling sphere viscometry | 66.23 mPa·s
363.15 K, 250000 kPa, Falling or rolling sphere viscometry | 70.4 mPa·s
